Test results as given in patent US20060069132A1, “Azolecarboxamide herbicides” (priority 2004, published 2006).

Tests used:
barnyardgrass [1] = test: Test A pre-/postemergence herbicide test; type: in vivo, Echinochloa crus-galli
In short: (§1)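 Sandy loam soil given preemergence directed spray; plants at 2 to 10 cm, one- to two-leaf stage, sprayed to runoff postemergence, compounds in non-phytotoxic solvent with surfactant. Injury rated visually versus untreated controls after about ten greenhouse days, 0 (no effect) to 100 (complete control); dash means not tested.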

large crabgrass [2] = test: Test A pre-/postemergence herbicide test; type: in vivo, Digitaria sanguinalis
In short: as §1

giant foxtail [3] = test: Test A pre-/postemergence herbicide test; type: in vivo, Setaria faberi
In short: as §1

morningglory [4] = test: Test A pre-/postemergence herbicide test; type: in vivo, Ipomoea spp.
In short: as §1

redroot pigweed = test: Test A pre-/postemergence herbicide test; type: in vivo, Amaranthus retroflexus
In short: as §1

velvetleaf [5] = test: Test A pre-/postemergence herbicide test; type: in vivo, Abutilon theophrasti
In short: as §1

barnyardgrass [6] = test: Test B pre-/postemergence herbicide test; type: in vivo, Echinochloa crus-galli; conditions: for Barnyardgrass plant response rating: postemergence, visual rating, scale 0 (no effect) to 100 (complete control)
In short: (§2)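 Test chemicals in a non-phytotoxic solvent mixture with surfactant were applied preemergence to seeded species and postemergence to plants 2-18 cm tall (1- to 4-leaf stage); rice and barnyardgrass were also tested in a flooded paddy at the 2-leaf stage. Visual rating versus controls after 13-15 days in greenhouse, scale 0 (no effect) to 100 (complete control).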

Surinam grass = test: Test B pre-/postemergence herbicide test; type: in vivo, Urochloa decumbens; conditions: for Surinam Grass plant response rating: postemergence, visual rating, scale 0 (no effect) to 100 (complete control)
In short: (§3)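 Herbicidal effect was judged by eye on a 0–100 scale after plants stood 13 to 15 days in the greenhouse following pre- or postemergence treatment with surfactant-containing formulations.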

cocklebur = test: Test B pre-/postemergence herbicide test; type: in vivo, Xanthium strumarium; conditions: for Cocklebur plant response rating: postemergence, visual rating, scale 0 (no effect) to 100 (complete control)
In short: as §2

corn = test: Test B pre-/postemergence herbicide test; type: in vivo, Zea mays; conditions: for Corn plant response rating: postemergence, visual rating, scale 0 (no effect) to 100 (complete control)
In short: as §3

large crabgrass [7] = test: Test B pre-/postemergence herbicide test; type: in vivo, Digitaria sanguinalis; conditions: for Crabgrass, Large plant response rating: postemergence, visual rating, scale 0 (no effect) to 100 (complete control)
In short: as §3

giant foxtail [8] = test: Test B pre-/postemergence herbicide test; type: in vivo, Setaria faberi; conditions: for Foxtail, Giant plant response rating: postemergence, visual rating, scale 0 (no effect) to 100 (complete control)
In short: as §3

lambsquarters = test: Test B pre-/postemergence herbicide test; type: in vivo, Chenopodium album; conditions: for Lambsquarters plant response rating: postemergence, visual rating, scale 0 (no effect) to 100 (complete control)
In short: as §3

morningglory [9] = test: Test B pre-/postemergence herbicide test; type: in vivo, Ipomoea coccinea; conditions: for Morningglory plant response rating: postemergence, visual rating, scale 0 (no effect) to 100 (complete control)
In short: as §2

pigweed = test: Test B pre-/postemergence herbicide test; type: in vivo, Amaranthus retroflexus; conditions: for Pigweed plant response rating: postemergence, visual rating, scale 0 (no effect) to 100 (complete control)
In short: as §3

velvetleaf [10] = test: Test B pre-/postemergence herbicide test; type: in vivo, Abutilon theophrasti; conditions: for Velvetleaf plant response rating: postemergence, visual rating, scale 0 (no effect) to 100 (complete control)
In short: as §3

blackgrass = test: Test B postemergence herbicide test; type: in vivo, Alopecurus myosuroides; conditions: postemergence, visual rating, scale 0 (no effect) to 100 (complete control)
In short: (§4)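 Paddy species grown to the 2-leaf stage under flooding; blackgrass sprayed postemergence at 2–18 cm (1- to 4-leaf stage). Plants kept in a greenhouse for 13 to 15 days, then visually rated against controls on 0 (no effect) to 100 (complete control).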

wheat = test: Test B postemergence herbicide test; type: in vivo, Triticum aestivum; parameters: key to Wheat plant response rating: 0 = no effect, 100 = complete control; conditions: postemergence, visual rating, scale 0 (no effect) to 100 (complete control)
In short: (§5)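 Read-out: visual comparison with controls, scored 0 to 100, where 100 means complete control and 0 no effect. Formulated chemicals were applied postemergence to plants 2–18 cm tall (1- to 4-leaf), or to flooded-paddy plants at the 2-leaf stage, then held 13 to 15 days under glass.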

wild oat = test: Test B postemergence herbicide test; type: in vivo, Avena fatua; conditions: postemergence, visual rating, scale 0 (no effect) to 100 (complete control)
In short: as §5

rice = test: Test B flooded paddy test; type: in vivo, Oryza sativa; conditions: 1000 g ai/ha, visual rating, scale 0 to 100 (0 no effect, 100 complete control), 13 to 15 days
In short: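 Treated at 2-leaf (paddy) or 1–4-leaf, 2–18 cm (postemergence); greenhouse 13–15 d; visual score vs control, 0 none to 100 complete control; dash = not tested.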

[11] = tested on: small flower umbrella sedge; test: Test B flooded paddy test; type: in vivo, Cyperus difformis; conditions: 1000 g ai/ha, visual rating, scale 0 to 100 (0 no effect, 100 complete control), 13 to 15 days
In short: as §4

ducksalad = test: Test B flooded paddy test; type: in vivo, Heteranthera limosa; conditions: 1000 g ai/ha, visual rating, scale 0 to 100 (0 no effect, 100 complete control), 13 to 15 days
In short: as §4

barnyardgrass [12] = test: Test B flooded paddy test; type: in vivo, Echinochloa crus-galli; conditions: 1000 g ai/ha, visual rating, scale 0 to 100 (0 no effect, 100 complete control), 13 to 15 days
In short: as §4

[13] = Postemergence, 500 g ai/ha, 0 to 100 scale, 0 no effect, 100 complete control
[14] = Postemergence, 2000 g ai/ha, 0 to 100 scale, 0 no effect, 100 complete control
[15] = Preemergence, 2000 g ai/ha, visual rating, 0 to 100 scale (0 no effect, 100 complete control)
[16] = preemergence, 500 g ai/ha, visual injury, 0 to 100 scale (0 no effect, 100 complete control)
[17] = 125 g ai/ha, 0 = no effect, 100 = complete control, preemergence
[18] = 500 g ai/ha, visual rating 0-100, 0 no effect, 100 complete control, preemergence

CC(=O)c1cccc(NC(=O)c2cn(C(C)C)nc2C)c1 [Compound 179]
Barnyardgrass plant response rating (barnyardgrass [1]; [13]): 5 | Plant response rating, Barnyardgrass (barnyardgrass [1]; [14]): 10 | Barnyardgrass plant response rating (barnyardgrass [1]; [15]): 40 | Barnyardgrass plant response rating (barnyardgrass [1]; [16]): 0 | Crabgrass, Large plant response rating (large crabgrass [2]; [13]): 10 | Plant response rating, Crabgrass, Large (large crabgrass [2]; [14]): 10 | Crabgrass, Large plant response rating (large crabgrass [2]; [15]): 50 | Crabgrass, Large plant response rating (large crabgrass [2]; [16]): 0 | Foxtail, Giant plant response rating (giant foxtail [3]; [13]): 0 | Plant response rating, Foxtail, Giant (giant foxtail [3]; [14]): 10 | Foxtail, Giant plant response rating (giant foxtail [3]; [15]): 10 | Foxtail, Giant plant response rating (giant foxtail [3]; [16]): 0 | Morningglory plant response rating (morningglory [4]; [13]): 10 | Plant response rating, Morningglory (morningglory [4]; [14]): 30 | Morningglory plant response rating (morningglory [4]; [15]): 5 | Morningglory plant response rating (morningglory [4]; [16]): 0 | Pigweed plant response rating (redroot pigweed; [13]): 0 | Plant response rating, Pigweed (redroot pigweed; [14]): 10 | Pigweed plant response rating (redroot pigweed; [15]): 35 | Pigweed plant response rating (redroot pigweed; [16]): 0 | Velvetleaf plant response rating (velvetleaf [5]; [13]): 0 | Plant response rating, Velvetleaf (velvetleaf [5]; [14]): 5 | Velvetleaf plant response rating (velvetleaf [5]; [15]): 0 | Velvetleaf plant response rating (velvetleaf [5]; [16]): 0 | Barnyardgrass plant response rating (0 to 100 scale) (barnyardgrass [6]; [17]): 0 | Plant response rating, Barnyardgrass (barnyardgrass [6]; [18]): 0 | Barnyardgrass plant response rating (barnyardgrass [6]; 125 g ai/ha): 0 | Barnyardgrass plant response rating (barnyardgrass [6]; 500 g ai/ha): 0 | Surinam Grass plant response rating (0 to 100 scale) (Surinam grass; [17]): 0 | Plant response rating, Surinam Grass (Surinam grass; [18]): 0 | Surinam Grass plant response rating (Surinam grass; 125 g ai/ha): 0 | Surinam Grass plant response rating (Surinam grass; 500 g ai/ha): 0 | Cocklebur plant response rating (0 to 100 scale) (cocklebur; [17]): 0 | Plant response rating, Cocklebur (cocklebur; [18]): 0 | Cocklebur plant response rating (cocklebur; 125 g ai/ha): 0 | Cocklebur plant response rating (cocklebur; 500 g ai/ha): 0 | Corn plant response rating (0 to 100 scale) (corn; [17]): 0 | Plant response rating, Corn (corn; [18]): 0 | Corn plant response rating (corn; 125 g ai/ha): 0 | Corn plant response rating (corn; 500 g ai/ha): 0 | Crabgrass, Large plant response rating (0 to 100 scale) (large crabgrass [7]; [17]): 0 | Plant response rating, Crabgrass, Large (large crabgrass [7]; [18]): 0 | Crabgrass, Large plant response rating (large crabgrass [7]; 125 g ai/ha): 0 | Crabgrass, Large plant response rating (large crabgrass [7]; 500 g ai/ha): 0 | Foxtail, Giant plant response rating (0 to 100 scale) (giant foxtail [8]; [17]): 0 | Plant response rating, Foxtail, Giant (giant foxtail [8]; [18]): 0 | Foxtail, Giant plant response rating (giant foxtail [8]; 125 g ai/ha): 0 | Foxtail, Giant plant response rating (giant foxtail [8]; 500 g ai/ha): 0 | Lambsquarters plant response rating (0 to 100 scale) (lambsquarters; [17]): 0 | Plant response rating, Lambsquarters (lambsquarters; [18]): 0 | Lambsquarters plant response rating (lambsquarters; 125 g ai/ha): 0 | Lambsquarters plant response rating (lambsquarters; 500 g ai/ha): 0 | Morningglory plant response rating (0 to 100 scale) (morningglory [9]; [17]): 0 | Plant response rating, Morningglory (morningglory [9]; [18]): 0 | Morningglory plant response rating (morningglory [9]; 125 g ai/ha): 0 | Morningglory plant response rating (morningglory [9]; 500 g ai/ha): 0 | Pigweed plant response rating (0 to 100 scale) (pigweed; [17]): 0 | Plant response rating, Pigweed (pigweed; [18]): 0 | Pigweed plant response rating (pigweed; 125 g ai/ha): 0 | Pigweed plant response rating (pigweed; 500 g ai/ha): 0 | Velvetleaf plant response rating (0 to 100 scale) (velvetleaf [10]; [17]): 0 | Plant response rating, Velvetleaf (velvetleaf [10]; [18]): 0 | Velvetleaf plant response rating (velvetleaf [10]; 125 g ai/ha): 0 | Velvetleaf plant response rating (velvetleaf [10]; 500 g ai/ha): 0 | Blackgrass plant response rating (blackgrass; 125 g ai/ha): 0 | Blackgrass plant response rating (blackgrass; 500 g ai/ha): 0 | Wheat plant response rating (wheat; 125 g ai/ha): 0 | Wheat plant response rating (wheat; 500 g ai/ha): 0 | Oat, Wild plant response rating (wild oat; 125 g ai/ha): 0 | Oat, Wild plant response rating (wild oat; 500 g ai/ha): 0 | Rice plant response rating (rice): 0 | Sedge, Umbrella plant response rating [11]: 0 | Ducksalad plant response rating (ducksalad): 0 | Barnyardgrass plant response rating (barnyardgrass [12]): 0
